Bounds are passed on as bounds.

Our source for the IC50 values is ChEMBL document CHEMBL1153155, “Ring-fused pyrazole derivatives as potent inhibitors of lymphocyte-specific kinase (Lck): Structure, synthesis, and SAR” (Bioorg Med Chem Lett, 2010).

In one assay the test system is Lymphocyte. As to the kind of experiment: Immunosuppressive activity in C57BL/6 mouse lymphocytes cocultured with mitomycin C-stimulated BALB/c mouse splenocyte assessed as [3H]thymidine incorporation after 72 hrs by mixed lymphocyte reaction. A general note: Incorporation of labelled thymidine or its analogues reports DNA synthesis.
Assay [1] has as its target Proto-oncogene tyrosine-protein kinase Src (Homo sapiens, UniProt P12931). As to the kind of experiment: Inhibition of SRC.
Assay [2] deals with Protein kinase C alpha type (Homo sapiens, UniProt P17252). As to the kind of experiment: Inhibition of PKCalpha.
Assay [3] is described as follows: Inhibition of PKA.
The target in assay [4] is Cyclin-dependent kinase 1 (Homo sapiens, UniProt P06493). As to the kind of experiment: Inhibition of CDK1.
Assay [5] has as its target Tyrosine-protein kinase Lck (Homo sapiens, UniProt P06239). Put plainly: Inhibition of GST-tagged human LCK by scintillation counting.
For assay [6], the target named is RAC-alpha serine/threonine-protein kinase (Homo sapiens, UniProt P31749). As to the kind of experiment: Inhibition of PKBalpha.
For assay [7], the target named is Dual specificity mitogen-activated protein kinase kinase 1 (Homo sapiens, UniProt Q02750). As to the kind of experiment: Inhibition of MEK1.
For assay [8], the target named is Mitogen-activated protein kinase 1 (Homo sapiens, UniProt P28482). As to the kind of experiment: Inhibition of MAPK1.
Assay [9] deals with T1, Tyrosine-protein kinase ZAP-70 (Homo sapiens, UniProt P43403).
T1 sequence (P43403 whole entry): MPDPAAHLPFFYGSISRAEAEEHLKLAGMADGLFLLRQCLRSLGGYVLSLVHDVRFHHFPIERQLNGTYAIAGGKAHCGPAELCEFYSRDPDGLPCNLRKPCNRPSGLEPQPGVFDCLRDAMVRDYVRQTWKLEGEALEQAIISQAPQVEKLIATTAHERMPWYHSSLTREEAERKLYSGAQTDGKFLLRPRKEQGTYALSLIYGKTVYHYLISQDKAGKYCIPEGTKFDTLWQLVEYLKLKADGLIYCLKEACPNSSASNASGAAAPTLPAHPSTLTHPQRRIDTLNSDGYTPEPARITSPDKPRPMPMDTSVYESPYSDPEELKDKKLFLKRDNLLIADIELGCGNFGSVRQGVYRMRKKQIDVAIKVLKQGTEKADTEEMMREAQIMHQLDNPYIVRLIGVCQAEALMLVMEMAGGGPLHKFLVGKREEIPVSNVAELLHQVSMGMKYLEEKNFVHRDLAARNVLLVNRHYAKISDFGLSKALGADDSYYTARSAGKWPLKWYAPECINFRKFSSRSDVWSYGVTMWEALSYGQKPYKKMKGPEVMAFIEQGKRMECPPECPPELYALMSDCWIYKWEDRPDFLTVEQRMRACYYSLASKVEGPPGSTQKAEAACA
As to the kind of experiment: Inhibition of Zap70.

The target in assay [10] is Tyrosine-protein kinase CSK (Homo sapiens, UniProt P41240). Put plainly: Inhibition of Csk.
The target in assay [11] is T2, Calcium/calmodulin-dependent protein kinase type IV (Homo sapiens, UniProt Q16566).
T2 sequence (Q16566 whole entry): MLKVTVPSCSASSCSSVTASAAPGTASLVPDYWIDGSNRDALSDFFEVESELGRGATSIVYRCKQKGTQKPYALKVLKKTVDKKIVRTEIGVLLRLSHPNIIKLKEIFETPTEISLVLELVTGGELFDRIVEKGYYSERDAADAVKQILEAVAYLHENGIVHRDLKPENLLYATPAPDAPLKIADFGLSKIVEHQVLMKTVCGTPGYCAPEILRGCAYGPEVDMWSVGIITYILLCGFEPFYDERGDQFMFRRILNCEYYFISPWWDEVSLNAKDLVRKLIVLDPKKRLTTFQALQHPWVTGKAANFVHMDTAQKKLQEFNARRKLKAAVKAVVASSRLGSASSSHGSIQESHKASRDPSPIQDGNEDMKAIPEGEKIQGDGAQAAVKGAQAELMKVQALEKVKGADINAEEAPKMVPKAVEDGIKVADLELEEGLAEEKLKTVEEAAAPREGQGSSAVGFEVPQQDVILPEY
As to the kind of experiment: Inhibition of CamK4.

Sequence of Tyrosine-protein kinase Lck (P06239 whole entry): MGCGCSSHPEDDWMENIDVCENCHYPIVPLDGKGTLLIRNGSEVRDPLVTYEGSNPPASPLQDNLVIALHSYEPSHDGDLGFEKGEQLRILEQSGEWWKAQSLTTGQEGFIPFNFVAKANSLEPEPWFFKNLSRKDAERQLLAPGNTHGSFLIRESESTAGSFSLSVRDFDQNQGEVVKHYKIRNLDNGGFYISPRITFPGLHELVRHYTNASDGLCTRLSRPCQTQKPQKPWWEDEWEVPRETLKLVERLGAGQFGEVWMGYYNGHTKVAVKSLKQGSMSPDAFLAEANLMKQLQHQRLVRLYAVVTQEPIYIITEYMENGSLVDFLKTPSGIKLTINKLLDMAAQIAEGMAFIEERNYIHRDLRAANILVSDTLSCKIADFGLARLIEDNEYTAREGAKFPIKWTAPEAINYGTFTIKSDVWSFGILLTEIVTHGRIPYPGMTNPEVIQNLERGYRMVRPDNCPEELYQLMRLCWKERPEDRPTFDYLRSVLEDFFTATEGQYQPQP
Sequence of RAC-alpha serine/threonine-protein kinase (P31749 whole entry): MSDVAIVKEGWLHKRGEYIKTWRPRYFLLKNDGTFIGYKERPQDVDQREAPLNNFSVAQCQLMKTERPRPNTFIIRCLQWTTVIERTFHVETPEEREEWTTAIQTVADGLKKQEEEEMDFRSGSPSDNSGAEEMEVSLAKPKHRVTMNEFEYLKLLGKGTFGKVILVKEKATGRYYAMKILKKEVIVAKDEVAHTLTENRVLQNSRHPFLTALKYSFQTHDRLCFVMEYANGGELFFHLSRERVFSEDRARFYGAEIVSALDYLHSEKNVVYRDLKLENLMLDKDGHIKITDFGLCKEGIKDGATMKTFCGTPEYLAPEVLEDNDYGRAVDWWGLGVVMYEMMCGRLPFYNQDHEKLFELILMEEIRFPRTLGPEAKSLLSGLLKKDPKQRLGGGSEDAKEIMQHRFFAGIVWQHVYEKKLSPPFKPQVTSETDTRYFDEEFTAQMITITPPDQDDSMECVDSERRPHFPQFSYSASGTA
Sequence of Mitogen-activated protein kinase 1 (P28482 whole entry): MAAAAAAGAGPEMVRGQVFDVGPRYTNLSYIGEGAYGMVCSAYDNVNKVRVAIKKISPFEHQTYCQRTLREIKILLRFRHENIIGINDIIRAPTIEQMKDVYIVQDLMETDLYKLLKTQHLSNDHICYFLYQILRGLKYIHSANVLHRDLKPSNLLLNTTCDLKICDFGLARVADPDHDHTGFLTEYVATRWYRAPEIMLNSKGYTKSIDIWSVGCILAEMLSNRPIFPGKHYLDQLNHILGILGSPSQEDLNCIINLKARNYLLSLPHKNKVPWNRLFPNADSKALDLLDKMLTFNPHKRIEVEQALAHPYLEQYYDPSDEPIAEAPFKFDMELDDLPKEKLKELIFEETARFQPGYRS
Sequence of Tyrosine-protein kinase CSK (P41240 whole entry): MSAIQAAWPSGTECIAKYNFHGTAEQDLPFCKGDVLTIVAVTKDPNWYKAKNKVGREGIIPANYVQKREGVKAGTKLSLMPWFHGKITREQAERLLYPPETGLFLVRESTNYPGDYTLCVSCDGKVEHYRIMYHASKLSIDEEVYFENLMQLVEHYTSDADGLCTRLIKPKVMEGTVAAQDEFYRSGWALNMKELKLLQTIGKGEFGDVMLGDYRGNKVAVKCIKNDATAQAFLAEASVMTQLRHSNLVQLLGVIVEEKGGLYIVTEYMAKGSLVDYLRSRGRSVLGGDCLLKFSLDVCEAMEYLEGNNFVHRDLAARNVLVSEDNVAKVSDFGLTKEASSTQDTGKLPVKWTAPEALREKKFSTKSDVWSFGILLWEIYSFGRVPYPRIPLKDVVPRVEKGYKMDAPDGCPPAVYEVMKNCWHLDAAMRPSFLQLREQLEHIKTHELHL
Sequence of Dual specificity mitogen-activated protein kinase kinase 1 (Q02750 whole entry): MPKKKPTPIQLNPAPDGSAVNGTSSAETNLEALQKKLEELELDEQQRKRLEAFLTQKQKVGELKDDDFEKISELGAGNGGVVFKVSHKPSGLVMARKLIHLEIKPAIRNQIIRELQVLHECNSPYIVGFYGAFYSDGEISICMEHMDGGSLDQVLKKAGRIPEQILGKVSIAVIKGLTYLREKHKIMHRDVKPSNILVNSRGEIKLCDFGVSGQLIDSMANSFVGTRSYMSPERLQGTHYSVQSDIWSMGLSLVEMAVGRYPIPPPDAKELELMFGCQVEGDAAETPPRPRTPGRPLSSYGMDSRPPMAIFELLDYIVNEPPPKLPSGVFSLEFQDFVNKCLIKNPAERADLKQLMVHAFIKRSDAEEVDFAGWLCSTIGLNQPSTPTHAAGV
Sequence of Cyclin-dependent kinase 1 (P06493 whole entry): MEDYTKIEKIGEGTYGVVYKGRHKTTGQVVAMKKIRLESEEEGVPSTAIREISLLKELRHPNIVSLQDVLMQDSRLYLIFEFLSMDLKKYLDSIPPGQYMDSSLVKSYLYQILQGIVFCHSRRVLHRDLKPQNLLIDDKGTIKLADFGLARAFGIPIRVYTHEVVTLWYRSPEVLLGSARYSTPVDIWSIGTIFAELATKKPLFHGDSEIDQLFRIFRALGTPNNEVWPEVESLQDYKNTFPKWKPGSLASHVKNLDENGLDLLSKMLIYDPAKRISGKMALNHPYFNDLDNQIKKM
Sequence of Proto-oncogene tyrosine-protein kinase Src (P12931 2-536 limits assumed): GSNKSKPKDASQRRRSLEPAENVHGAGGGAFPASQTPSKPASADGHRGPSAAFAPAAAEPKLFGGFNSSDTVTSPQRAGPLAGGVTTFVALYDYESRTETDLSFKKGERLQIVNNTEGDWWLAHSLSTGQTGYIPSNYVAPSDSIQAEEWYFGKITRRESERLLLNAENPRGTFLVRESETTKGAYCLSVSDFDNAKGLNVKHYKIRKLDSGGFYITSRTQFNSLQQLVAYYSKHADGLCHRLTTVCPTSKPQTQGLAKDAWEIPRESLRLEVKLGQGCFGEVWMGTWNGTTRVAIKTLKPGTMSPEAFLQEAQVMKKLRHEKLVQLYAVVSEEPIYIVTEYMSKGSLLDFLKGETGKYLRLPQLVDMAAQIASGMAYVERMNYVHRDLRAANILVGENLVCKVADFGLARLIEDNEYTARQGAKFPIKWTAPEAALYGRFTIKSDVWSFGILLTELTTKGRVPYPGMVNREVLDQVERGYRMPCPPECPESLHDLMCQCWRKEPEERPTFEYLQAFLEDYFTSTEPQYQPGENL

Take `NC(=O)c1c(-c2ccc(Oc3ccccc3)cc2)nn2c1Nc1cc(OCc3cccnc3)ccc1CC2`: the IC50 (commonly the midpoint of a concentration-inhibition curve) in the assay on Lymphocyte stood at 52 nM.
Take `NC(=O)c1c(-c2ccc(Oc3ccccc3)cc2)nn2c1Nc1ccc(OCc3ccncc3)cc1CC2`: the IC50 with Lymphocyte amounted to 4.4 nM.
In the case of `CN(C)CCOc1ccc2c(c1)Nc1c(C(N)=O)c(-c3ccc(Oc4ccccc4)cc3)nn1CC2`, the IC50 with Lymphocyte stood at 6.4 nM.
Consider `NC(=O)COc1ccc2c(c1)CCn1nc(-c3ccc(Oc4ccccc4)cc3)c(C(N)=O)c1N2`, for which the IC50 in the assay on Lymphocyte came out at 88 nM.
The same measure, in the same setting: next, `NC(=O)c1c(-c2ccc(Oc3ccccc3)cc2)nn2c1Nc1ccc(OCCO)cc1CC2`: 1.2 nM.
Still for that read-out and setting: next, `NC(=O)c1c(-c2ccc(Oc3ccccc3)cc2)nn2c1Nc1ccc(OCCN3CCOCC3)cc1CC2`: 1.1 nM; `CN(C)CCCOc1ccc2c(c1)CCn1nc(-c3ccc(Oc4ccccc4)cc3)c(C(N)=O)c1N2`: 0.85 nM; `NC(=O)c1c(-c2ccc(Oc3ccccc3)cc2)nn2c1Nc1cc(OCCO)ccc1CC2`: 58 nM.
Take `CN(C)CCCOc1ccc2c(c1)Nc1c(C(N)=O)c(-c3ccc(Oc4ccccc4)cc3)nn1CC2`: the IC50 in the assay on Lymphocyte was found to be 12 nM.
Still for that read-out and setting: for `CN(C)CCOc1ccc2c(c1)CCn1nc(-c3ccc(NC(=O)OCc4ccccc4)cc3)c(C(N)=O)c1N2` the value was 23 nM.
For the compound `CN1CCN(CCOc2ccc3c(c2)CCn2nc(-c4ccc(Oc5ccccc5)cc4)c(C(N)=O)c2N3)CC1`, the IC50 in the assay with Lymphocyte came out at 6.7 nM.
Take `NC(=O)c1c(-c2ccc(Oc3ccccc3)cc2)nn2c1Nc1cc(OCC(=O)O)ccc1CC2`: the IC50 with Lymphocyte is > 1000 nM.
Turning to `NC(=O)COc1ccc2c(c1)Nc1c(C(N)=O)c(-c3ccc(Oc4ccccc4)cc3)nn1CC2`, the IC50 in the assay on Lymphocyte amounted to 16 nM.
The same measure, in the same setting: for `NCCOc1ccc2c(c1)Nc1c(C(N)=O)c(-c3ccc(Oc4ccccc4)cc3)nn1CC2` the value was 25 nM.
Same read-out and setting: for `CN(C)CCOc1ccc2c(c1)CCn1nc(-c3ccc(Nc4ccccc4)cc3)c(C(N)=O)c1N2` the value was 8.2 nM.
Still for that read-out and setting: for `CC(=O)COc1ccc2c(c1)Nc1c(C(N)=O)c(-c3ccc(Oc4ccccc4)cc3)nn1CC2` the value was 61 nM; for `NC(=O)c1c(-c2ccc(Oc3ccccc3)cc2)nn2c1Nc1ccc(OCc3ccccn3)cc1CC2`, 8.4 nM; for `NC(=O)c1c(-c2ccc(Oc3ccccc3)cc2)nn2c1Nc1ccc(OCc3cccnc3)cc1CC2`, 1.5 nM.
For `NC(=O)c1c(-c2ccc(Oc3ccccc3)cc2)nn2c1Nc1cc(OCCN3CCOCC3)ccc1CC2`, the IC50 in the assay with Lymphocyte came out at 15 nM.
On the same count and under the same terms, for `CN(C)CCOc1ccc2c(c1)CCn1nc(-c3ccc(NC(=O)Nc4ccccc4)cc3)c(C(N)=O)c1N2` the value was 50 nM.
On to `CN(C)CCOc1ccc2c(c1)CCn1nc(-c3ccc(NCc4c(Cl)cccc4Cl)cc3)c(C(N)=O)c1N2`, for which, in the assay on Lymphocyte, the IC50 was found to be 1.3 nM.
Regarding `CN1CCN(CCOc2ccc3c(c2)Nc2c(C(N)=O)c(-c4ccc(Oc5ccccc5)cc4)nn2CC3)CC1`, in the assay on Lymphocyte, the IC50 was found to be 12 nM.
The same measure, in the same setting: next, `COc1ccc2c(c1)Nc1c(C(N)=O)c(-c3ccc(Oc4ccccc4)cc3)nn1CC2`: 300 nM; `CN(C)CCOc1ccc2c(c1)CCn1nc(-c3ccc(NC(=O)Nc4c(Cl)cccc4Cl)cc3)c(C(N)=O)c1N2`: 21 nM.
Turning to `CN(C)CCOc1ccc2c(c1)CCn1nc(-c3ccc(Oc4ccccc4)cc3)c(C(N)=O)c1N2`, the IC50 in [1] was 0.6 nM; in assay [2], > 10000 nM; in assay [3], > 10000 nM; in assay [4], > 10000 nM; in assay [5], 0.72 nM; in [6], > 10000 nM. For the same compound, the IC50 was > 10000 nM in assay [7]; > 10000 nM in [8]; > 1000 nM in [9]; 1.7 nM in [10]; 0.74 nM in the assay on Lymphocyte; > 10000 nM in [11].
Regarding `CN(C)CCOc1ccc2c(c1)CCn1nc(-c3ccc(N)cc3)c(C(N)=O)c1N2`, the IC50 with Lymphocyte stood at 180 nM.
The same measure, in the same setting: next, `CN(C)CCOc1ccc2c(c1)CCn1nc(-c3ccc(O)cc3)c(C(N)=O)c1N2`: 38 nM.
Consider `CC(C)CCCOc1ccc2c(c1)Nc1c(C(N)=O)c(-c3ccc(Oc4ccccc4)cc3)nn1CC2`, for which the IC50 in [5] is > 100 nM; in the assay with Lymphocyte it was 620 nM.
Turning to `NCCOc1ccc2c(c1)CCn1nc(-c3ccc(Oc4ccccc4)cc3)c(C(N)=O)c1N2`, in the assay with Lymphocyte, the IC50 was found to be 1.3 nM.
